Literature values as cited in publication PMC11647681, “Discovery of Non-Covalent Inhibitors for SARS-CoV-2 PLpro: Integrating Virtual Screening, Synthesis, and Experimental Validation” (ACS Medicinal Chemistry Letters, 2024).

System: SARS-CoV-2, and its variants
Set-up: method as in PMID 38547259
Settings: cited from earlier work

In the case of `CCn1ccc(-c2cc(-c3cnn(C)c3)cc([C@@H](C)NC(=O)c3cc(OCCN(C)C)ccc3C)c2)n1` [Jun12682], the “activity against SARS-CoV-2, and its variants, in vivo” value is given as “confirmed”.
